# Reference: US12521393B2, “Cytotoxicity targeting chimeras for CCR2-expressing cells” (GLAXOSMITHKLINE INTELLECTUAL PROPERTY DEVELOPMENT LIMITED, priority 2021, dated 2026)
# Tests used:
# [1] = system: endogenous target monocytes in human PBMC; assay: PBMC ex vivo monocyte depletion flow cytometry assay (Example 200); format: cell-based; settings: with anti-cotinine antibody (SEQ ID NO: 11/12), 18-24 hours, EC50 in molar, read-out: Ex Vivo Depletion Assay pEC50 (converted)
# Summary of the method: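 Monocyte depletion is reported as pEC50, averaged or given individually across runs, and read by flow cytometry staining CD45, CD14 and CD4 with a viability dye. Compounds, diluted four-fold over 11 points from 1 mM DMSO stocks, were combined with 30 μg/mL Fc-enhanced anti-cotinine antibody and human PBMC, then incubated 18-24 h at 37° C.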
# [2] = target: anti-cotinine antibody (SEQ ID NO: 11/12, rabbit variable region with human IgG1 Fc DE mutation); assay: SPR binding of anti-cotinine antibody to ARM compounds, Biacore T200, 37° C. (Example 202); settings: SPR Biacore T200, 37° C., pH 7.4, antibody SEQ ID NO: 11/12 captured on protein A; Kd in molar
# Summary of the method: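 Antibody captured on a protein A chip; ARM compounds injected at 100 μL/min (200 s association, 2000 s dissociation), 3-fold 5-point series from 200 nM, at 37 °C in HEPES pH 7.4 buffer with 0.005% P20 and 1% DMSO. Double-referenced sensorgrams fit 1:1 for kon, koff, Kd (koff/kon), residence time (1/koff); pKd averaged across runs.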
Structure (SMILES),EC50 [1] [nM],pKd of Antibody for ARM Compound of Formula (I) [2]
"CC(C)N(C)[C@@H]1CC[C@H](N2CC[C@H](Nc3ncnc4ccc(C(F)(F)F)cc34)C2=O)[C@H](NC(=O)[C@H]2CC[C@H](NC(=O)CCCO[C@H]3CC[C@H](OCCNC(=O)[C@H]4CC(=O)N(C)[C@@H]4c4cccnc4)CC3)CC2)C1 [Example 1, (2S,3S)-N-(2-(((1R,4S)-4-(4-(((1R,4R)-4-(((1R,2S,5R)-5-(Isopropyl(methyl)amino)-2-((S)-2-oxo-3-((6-(trifluoromethyl)quinazolin-4-yl)amino)pyrrolidin-1-yl)cyclohexyl)carbamoyl)cyclohexyl)amino)-4-oxobutoxy)cyclohexyl)oxy)ethyl)-1-methyl-5-oxo-2-(pyridin-3-yl)pyrrolidine-3-carboxamide]",1.58,9.654
"CC(C)N(C)[C@@H]1CC[C@H](N2CC[C@H](Nc3ncnc4ccc(C(F)(F)F)cc34)C2=O)[C@H](NC(=O)[C@H]2CC[C@@H](NC(=O)CCCO[C@H]3CC[C@H](OCCNC(=O)[C@H]4CC(=O)N(C)[C@@H]4c4cccnc4)CC3)CC2)C1 [Example 5, (2S,3S)-N-(2-(((1R,4S)-4-(4-(((1S,4S)-4-(((1R,2S,5R)-5-(Isopropyl(methyl)amino)-2-((S)-2-oxo-3-((6-(trifluoromethyl)quinazolin-4-yl)amino)pyrrolidin-1-yl)cyclohexyl)carbamoyl)cyclohexyl)amino)-4-oxobutoxy)cyclohexyl)oxy)ethyl)-1-methyl-5-oxo-2-(pyridin-3-yl)pyrrolidine-3-carboxamide]",0.398,9.19
"CC(C)N(C)[C@@H]1CC[C@H](N2CC[C@H](Nc3ncnc4ccc(C(F)(F)F)cc34)C2=O)[C@H](NC(=O)CCOCCNC(=O)CCCO[C@H]2CC[C@H](OCCNC(=O)[C@H]3CC(=O)N(C)[C@@H]3c3cccnc3)CC2)C1 [Example 7, (2S,3S)-N-(2-(((1r,4S)-4-(4-((2-(3-(((1R,2S,5R)-5-(Isopropyl(methyl)amino)-2-((S)-2-oxo-3-((6-(trifluoromethyl)quinazolin-4-yl)amino)pyrrolidin-1-yl)cyclohexyl)amino)-3-oxopropoxy)ethyl)amino)-4-oxobutoxy)cyclohexyl)oxy)ethyl)-1-methyl-5-oxo-2-(pyridin-3-yl)pyrrolidine-3-carboxamide]",0.501,9.2515
"CN1C(=O)C[C@H](C(=O)NCCO[C@H]2CC[C@H](OCCCC(=O)N[C@H]3CC[C@H](C(=O)N[C@@H]4C[C@H](NC(C)(C)C)CC[C@@H]4N4CC[C@H](Nc5ncnc6ccc(C(F)(F)F)cc56)C4=O)CC3)CC2)[C@H]1c1cccnc1 [Example 10, (2S,3S)-N-(2-(((1R,4S)-4-(4-(((1R,4R)-4-(((1R,2S,5R)-5-(tert-Butylamino)-2-((S)-2-oxo-3-((6-(trifluoromethyl)quinazolin-4-yl)amino)pyrrolidin-1-yl)cyclohexyl)carbamoyl)cyclohexyl)amino)-4-oxobutoxy)cyclohexyl)oxy)ethyl)-1-methyl-5-oxo-2-(pyridin-3-yl)pyrrolidine-3-carboxamide]",–,9.199
"CC(C)N(C)[C@@H]1CC[C@H](N2CC[C@H](Nc3ncnc4ccc(C(F)(F)F)cc34)C2=O)[C@H](NC(=O)[C@H]2CC[C@@H](NC(=O)CCOCCOCCNC(=O)CCNC(=O)[C@H]3CC(=O)N(C)[C@@H]3c3cccnc3)CC2)C1 [Example 16, (2S,3S)-N-(3-((2-(2-(3-(((1S,4s)-4-(((1R,2S,5R)-5-(Isopropyl(methyl)amino)-2-((S)-2-oxo-3-((6-(trifluoromethyl)quinazolin-4-yl)amino)pyrrolidin-1-yl)cyclohexyl)carbamoyl)cyclohexyl)amino)-3-oxopropoxy)ethoxy)ethyl)amino)-3-oxopropyl)-1-methyl-5-oxo-2-(pyridin-3-yl)pyrrolidine-3-carboxamide]",0.316,9.287
"CC(C)N(C)[C@@H]1CC[C@H](N2CC[C@H](Nc3ncnc4ccc(C(F)(F)F)cc34)C2=O)[C@H](NC(=O)[C@H]2CC[C@@H](NC(=O)CCCC(=O)NCCCOCCCNC(=O)[C@H]3CC(=O)N(C)[C@@H]3c3cccnc3)CC2)C1 [Example 18, N^1-((1S,4s)-4-(((1R,2S,5R)-5-(Isopropyl(methyl)amino)-2-((S)-2-oxo-3-((6-(trifluoromethyl)quinazolin-4-yl)amino)pyrrolidin-1-yl)cyclohexyl)carbamoyl)cyclohexyl)-N^5-(3-(3-((2S,3S)-1-methyl-5-oxo-2-(pyridin-3-yl)pyrrolidine-3-carboxamido)propoxy)propyl)glutaramide]",0.501,9.0895
"CC(C)N(C)[C@@H]1CC[C@H](N2CC[C@H](Nc3ncnc4ccc(C(F)(F)F)cc34)C2=O)[C@H](NC(=O)[C@H]2CC[C@H](NC(=O)CCCC(=O)NCCCOCCCNC(=O)[C@H]3CC(=O)N(C)[C@@H]3c3cccnc3)CC2)C1 [Example 19, N1-((1R,4r)-4-(((1R,2S,5R)-5-(Isopropyl(methyl)amino)-2-((S)-2-oxo-3-((6-(trifluoromethyl)quinazolin-4-yl)amino)pyrrolidin-1-yl)cyclohexyl)carbamoyl)cyclohexyl)-N5-(3-(3-((2S,3S)-1-methyl-5-oxo-2-(pyridin-3-yl)pyrrolidine-3-carboxamido)propoxy)propyl)glutaramide]",0.794,9.19
"CN1C(=O)C[C@H](C(=O)NCCOCCOCCOCCC(=O)N[C@H]2CC[C@@H](C(=O)N[C@@H]3C[C@H](NC(C)(C)C)CC[C@@H]3N3CC[C@H](Nc4ncnc5ccc(C(F)(F)F)cc45)C3=O)CC2)[C@H]1c1cccnc1 [Example 23, (2S,3S)-N-(2-(2-(2-(3-(((1S,4s)-4-(((1R,2S,5R)-5-(tert-Butylamino)-2-((S)-2-oxo-3-((6-(trifluoromethyl)quinazolin-4-yl)amino)pyrrolidin-1-yl)cyclohexyl)carbamoyl)cyclohexyl)amino)-3-oxopropoxy)ethoxy)ethoxy)ethyl)-1-methyl-5-oxo-2-(pyridin-3-yl)pyrrolidine-3-carboxamide]",2,9.2166
"CC(C)N(C)[C@@H]1CC[C@H](N2CC[C@H](Nc3ncnc4ccc(C(F)(F)F)cc34)C2=O)[C@H](NC(=O)[C@H]2C[C@@H](NC(=O)CCOCCOCCOCCNC(=O)[C@H]3CC(=O)N(C)[C@@H]3c3cccnc3)C2)C1 [Example 24, (2S,3S)-N-(2-(2-(2-(3-(((1S,3s)-3-(((1R,2S,5R)-5-(Isopropyl(methyl)amino)-2-((S)-2-oxo-3-((6-(trifluoromethyl)quinazolin-4-yl)amino)pyrrolidin-1-yl)cyclohexyl)carbamoyl)cyclobutyl)amino)-3-oxopropoxy)ethoxy)ethoxy)ethyl)-1-methyl-5-oxo-2-(pyridin-3-yl)pyrrolidine-3-carboxamide]",1.26,9.4425
"CC(C)N(C)[C@@H]1CC[C@H](N2CC[C@H](Nc3ncnc4ccc(C(F)(F)F)cc34)C2=O)[C@H](NC(=O)[C@H]2CC[C@@H](NC(=O)CCOCCOCCOCCNC(=O)[C@H]3CC(=O)N(C)[C@@H]3c3cccnc3)CC2)C1 [Example 28, (2S,3S)-N-(2-(2-(2-(3-(((1S,4s)-4-(((1R,2S,5R)-5-(Isopropyl(methyl)amino)-2-((S)-2-oxo-3-((6-(trifluoromethyl)quinazolin-4-yl)amino)pyrrolidin-1-yl)cyclohexyl)carbamoyl)cyclohexyl)amino)-3-oxopropoxy)ethoxy)ethoxy)ethyl)-1-methyl-5-oxo-2-(pyridin-3-yl)pyrrolidine-3-carboxamide]",1,9.273
"CC(C)N(C)[C@@H]1CC[C@H](N2CC[C@H](Nc3ncnc4ccc(C(F)(F)F)cc34)C2=O)[C@H](NC(=O)[C@H]2CC[C@H](NC(=O)CCOCCOCCOCCNC(=O)[C@H]3CC(=O)N(C)[C@@H]3c3cccnc3)CC2)C1 [Example 30, (2S,3S)-N-(2-(2-(2-(3-(((1R,4r)-4-(((1R,2S,5R)-5-(Isopropyl(methyl)amino)-2-((S)-2-oxo-3-((6-(trifluoromethyl)quinazolin-4-yl)amino)pyrrolidin-1-yl)cyclohexyl)carbamoyl)cyclohexyl)amino)-3-oxopropoxy)ethoxy)ethoxy)ethyl)-1-methyl-5-oxo-2-(pyridin-3-yl)pyrrolidine-3-carboxamide]",2.51,9.3155
"CCN1C(=O)C[C@H](C(=O)NCCOCCOCCOCCC(=O)N[C@H]2CC[C@@H](C(=O)N[C@@H]3C[C@H](N(C)C(C)C)CC[C@@H]3N3CC[C@H](Nc4ncnc5ccc(C(F)(F)F)cc45)C3=O)CC2)[C@H]1c1cccnc1 [Example 34, (2S,3S)-1-ethyl-N-(2-(2-(2-(3-((cis-4-(((1R,2S,5R)-5-(isopropyl(methyl)amino)-2-((S)-2-oxo-3-((6-(trifluoromethyl)quinazolin-4-yl)amino)pyrrolidin-1-yl)cyclohexyl)carbamoyl)cyclohexyl)amino)-3-oxopropoxy)ethoxy)ethoxy)ethyl)-5-oxo-2-(pyridin-3-yl)pyrrolidine-3-carboxamide]",1.58,9.933
